Test: xn = mol fraction of the nth substance listed, in the solute-free solvent

Nc1nccnc1Cl + OCCO + O
solubility (g/100 g solution)
Conditions | 278.15 K | 283.15 K | 288.15 K | 293.15 K | 298.15 K | 303.15 K | 308.15 K | 313.15 K | 318.15 K | 323.15 K
x2 = 0.03125 | 0.0244 | 0.0327 | 0.0431 | 0.0542 | 0.0663 | 0.0791 | 0.0925 | 0.108 | 0.123 | 0.139
x2 = 0.06767 | 0.0337 | 0.045 | 0.0589 | 0.0739 | 0.0903 | 0.108 | 0.126 | 0.147 | 0.167 | 0.189
x2 = 0.1107 | 0.0487 | 0.0645 | 0.0838 | 0.105 | 0.128 | 0.153 | 0.178 | 0.208 | 0.236 | 0.267
x2 = 0.1622 | 0.0695 | 0.0914 | 0.118 | 0.147 | 0.179 | 0.213 | 0.25 | 0.29 | 0.33 | 0.372
x2 = 0.225 | 0.09 | 0.119 | 0.153 | 0.192 | 0.235 | 0.28 | 0.328 | 0.382 | 0.435 | 0.491
x2 = 0.3034 | 0.113 | 0.148 | 0.19 | 0.239 | 0.291 | 0.347 | 0.408 | 0.474 | 0.541 | 0.61
x2 = 0.4038 | 0.13 | 0.17 | 0.218 | 0.273 | 0.334 | 0.399 | 0.469 | 0.546 | 0.625 | 0.705
x2 = 0.5373 | 0.139 | 0.182 | 0.232 | 0.292 | 0.357 | 0.427 | 0.505 | 0.589 | 0.676 | 0.764
x2 = 0.7232 | 0.142 | 0.182 | 0.235 | 0.297 | 0.364 | 0.438 | 0.519 | 0.607 | 0.699 | 0.792

S=c1[nH]ncs1 + CO + O
solubility (g/100 g solution)
Conditions | 278.15 K | 283.15 K | 288.15 K | 293.15 K | 298.15 K | 303.15 K | 308.15 K | 313.15 K | 318.15 K | 323.15 K
x2 = 0.1 | 0.5 | 0.691 | 0.906 | 1.21 | 1.6 | 2.03 | 2.55 | 3.35 | 4.36 | 5.36
x2 = 0.2 | 0.926 | 1.24 | 1.54 | 2.06 | 2.68 | 3.38 | 4.35 | 5.66 | 6.96 | 8.64
x2 = 0.3 | 1.39 | 1.97 | 2.65 | 3.39 | 4.42 | 5.59 | 7.12 | 9.03 | 11.2 | 13.9
x2 = 0.4 | 2.53 | 3.26 | 4.24 | 5.33 | 6.73 | 8.48 | 10.5 | 13.2 | 16.4 | 19.8
x2 = 0.5 | 3.89 | 4.96 | 6.04 | 7.5 | 9.43 | 11.5 | 13.7 | 16.8 | 20 | 23.9
x2 = 0.6 | 5.2 | 6.6 | 8.03 | 9.72 | 11.6 | 14 | 17 | 19.9 | 23.3 | 27.5
x2 = 0.7 | 6.84 | 8.43 | 10.2 | 12 | 14.1 | 16.4 | 19.3 | 22.6 | 26.2 | 29.6
x2 = 0.8 | 8.37 | 10.1 | 11.9 | 13.8 | 16 | 18.5 | 21.4 | 24.6 | 28.2 | 31.5
x2 = 0.9 | 10.1 | 11.9 | 13.7 | 15.8 | 18 | 20.5 | 23.4 | 26.6 | 30 | 33.2

CN1CCN(C2=Nc3cc(Cl)ccc3Nc3ccccc32)CC1 + CC(C)O + O
solubility (g/100 g solution)
Conditions | x2 = 0.03225 | x2 = 0.06974 | x2 = 0.1139 | x2 = 0.1666 | x2 = 0.2307 | x2 = 0.3103 | x2 = 0.4117 | x2 = 0.5454 | x2 = 0.7297
278.15 K | 0.00624 | 0.0228 | 0.0624 | 0.135 | 0.239 | 0.393 | 0.559 | 0.783 | 0.957
283.15 K | 0.00829 | 0.029 | 0.0775 | 0.164 | 0.288 | 0.463 | 0.667 | 0.914 | 1.13
288.15 K | 0.0108 | 0.0371 | 0.096 | 0.199 | 0.35 | 0.567 | 0.781 | 1.08 | 1.32
293.15 K | 0.014 | 0.0473 | 0.117 | 0.237 | 0.417 | 0.659 | 0.933 | 1.27 | 1.54
298.15 K | 0.0182 | 0.06 | 0.144 | 0.283 | 0.493 | 0.781 | 1.09 | 1.47 | 1.78
303.15 K | 0.0233 | 0.0733 | 0.171 | 0.336 | 0.578 | 0.917 | 1.25 | 1.72 | 2.07
308.15 K | 0.0298 | 0.0919 | 0.207 | 0.399 | 0.675 | 1.06 | 1.47 | 1.96 | 2.37
313.15 K | 0.0368 | 0.113 | 0.249 | 0.472 | 0.803 | 1.22 | 1.69 | 2.24 | 2.68
318.15 K | 0.0461 | 0.137 | 0.295 | 0.552 | 0.923 | 1.42 | 1.95 | 2.58 | 3.06
323.15 K | 0.0576 | 0.166 | 0.344 | 0.642 | 1.07 | 1.63 | 2.21 | 2.92 | 3.45
328.15 K | 0.071 | 0.203 | 0.407 | 0.739 | 1.23 | 1.85 | 2.53 | 3.33 | 3.91
